Where two headings read alike, the source gives them in different places.
Columns and labels:
Assay type in all cases: binding
α4β2 nAChR subtype = molecular target: T1, α4β2 nAChR subtype (Rattus norvegicus, UniProt P09483+P12390); experiment: biochemical
T1 construct: expressed in transfected cells
Source text: (§1) In order to assess the steric and hydropathic effects of the C-5 substituents of the pyridine on the binding affinity and subtype-selectivity at neuronal nicotinic acetylcholine receptors. […] The binding affinity ratios for a ligand, calculated from its affinities at an α subunit paired with either the β2 osubunit or the β4 subunit, represents a measure of the selectivity of that ligand with regard to the β subunits.

[1] = system: receptors in rat forebrain (mainly α4β2); experiment: biochemical; details: Table 3; ratio of the corresponding Ki values
Source text: as §1
(§2) In Vitro Inhibition of ^3H-Epibatidin Binding
(§3) The high affinity binding site for ^3H-epibatidin is most certainly binding to the α4β2 subtype of nicotinic receptors. The identity of the low affinity site is still believed to be unknown.
(§4) Tissue preparation: Preparations may be performed at 0-4° C. unless otherwise indicated. […] The tissue suspension may then be centrifuged at 27,000×g for 10 min. The supernatant is then discarded and the pellet may then be washed three times by centrifugation at 27,000×g for 10 min in 20 mL fresh buffer, and the final pellet may be resuspended in fresh buffer (400 mL per g of original tissue) and used for binding assays.
(§5) Assay: Aliquots of 2.0 mL homogenate may be added to 0.100 mL of test solution and 0.100 mL of ^3H-epibatidin (0.3 nM, final concentration), mixed and incubated for 60 min at room temperature. […] The amount of radioactivity on the filters may be determined by conventional liquid scintillation counting. Specific binding is total binding minus non-specific binding.

α2β2 nAChR subtype = molecular target: T2, α2β2 nAChR subtype (Rattus norvegicus, UniProt P12389+P12390); experiment: biochemical
T2 construct: expressed in transfected cells
T2 sequence (P12390 25-500): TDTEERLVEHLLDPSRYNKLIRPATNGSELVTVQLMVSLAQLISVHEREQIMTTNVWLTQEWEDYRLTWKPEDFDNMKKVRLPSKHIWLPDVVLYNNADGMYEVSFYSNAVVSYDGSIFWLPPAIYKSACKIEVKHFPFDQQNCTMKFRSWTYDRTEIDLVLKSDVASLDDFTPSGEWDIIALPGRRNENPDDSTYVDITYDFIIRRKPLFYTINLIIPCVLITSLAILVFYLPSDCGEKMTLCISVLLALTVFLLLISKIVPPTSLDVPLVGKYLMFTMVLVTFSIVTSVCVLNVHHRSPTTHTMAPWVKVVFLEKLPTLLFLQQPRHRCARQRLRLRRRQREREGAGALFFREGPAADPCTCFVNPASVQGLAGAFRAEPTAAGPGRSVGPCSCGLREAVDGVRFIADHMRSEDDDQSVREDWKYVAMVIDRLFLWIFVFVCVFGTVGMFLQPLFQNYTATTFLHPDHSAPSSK
T2 sequence (P12389 28-511): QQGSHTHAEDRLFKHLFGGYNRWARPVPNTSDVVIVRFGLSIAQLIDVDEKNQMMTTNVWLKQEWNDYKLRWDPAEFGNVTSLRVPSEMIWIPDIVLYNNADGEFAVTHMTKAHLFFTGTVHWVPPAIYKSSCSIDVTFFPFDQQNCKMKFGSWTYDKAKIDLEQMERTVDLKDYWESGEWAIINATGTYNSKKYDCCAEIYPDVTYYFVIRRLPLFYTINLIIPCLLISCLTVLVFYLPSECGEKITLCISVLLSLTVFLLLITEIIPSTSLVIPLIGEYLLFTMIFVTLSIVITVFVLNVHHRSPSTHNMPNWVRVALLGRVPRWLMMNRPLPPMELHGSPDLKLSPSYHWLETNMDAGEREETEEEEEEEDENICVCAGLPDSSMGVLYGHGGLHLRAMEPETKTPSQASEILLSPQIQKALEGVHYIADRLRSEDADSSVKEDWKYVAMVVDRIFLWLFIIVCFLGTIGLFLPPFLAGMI
Source text: as §1

α2β4 nAChR subtype = molecular target: T3, α2β4 nAChR subtype (Rattus norvegicus, UniProt P12389+P12392); experiment: biochemical
T3 construct: expressed in transfected cells
T3 sequence (P12389 28-511): as above
T3 sequence (P12392 21-495): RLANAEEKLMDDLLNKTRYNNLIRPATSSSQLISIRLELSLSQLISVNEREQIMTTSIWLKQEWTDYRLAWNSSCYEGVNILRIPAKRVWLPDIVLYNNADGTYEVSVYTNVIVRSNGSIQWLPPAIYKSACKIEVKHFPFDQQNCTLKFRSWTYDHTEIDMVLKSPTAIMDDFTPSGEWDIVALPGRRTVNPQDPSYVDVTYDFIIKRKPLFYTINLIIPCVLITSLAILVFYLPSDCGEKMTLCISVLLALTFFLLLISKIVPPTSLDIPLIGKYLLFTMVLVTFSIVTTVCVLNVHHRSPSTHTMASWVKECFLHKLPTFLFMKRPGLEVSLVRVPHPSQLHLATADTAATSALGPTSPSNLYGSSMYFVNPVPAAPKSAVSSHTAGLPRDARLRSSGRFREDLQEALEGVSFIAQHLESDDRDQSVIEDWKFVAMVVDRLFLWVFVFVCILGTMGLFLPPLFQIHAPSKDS
Source text: as §1

α3β2 nAChR subtype = molecular target: T4, α3β2 nAChR subtype (Rattus norvegicus, UniProt P04757+P12390); experiment: biochemical
T4 construct: expressed in transfected cells
T4 sequence (P12390 25-500): as the sequence (P12390 25-500) above
T4 sequence (P04757 26-499): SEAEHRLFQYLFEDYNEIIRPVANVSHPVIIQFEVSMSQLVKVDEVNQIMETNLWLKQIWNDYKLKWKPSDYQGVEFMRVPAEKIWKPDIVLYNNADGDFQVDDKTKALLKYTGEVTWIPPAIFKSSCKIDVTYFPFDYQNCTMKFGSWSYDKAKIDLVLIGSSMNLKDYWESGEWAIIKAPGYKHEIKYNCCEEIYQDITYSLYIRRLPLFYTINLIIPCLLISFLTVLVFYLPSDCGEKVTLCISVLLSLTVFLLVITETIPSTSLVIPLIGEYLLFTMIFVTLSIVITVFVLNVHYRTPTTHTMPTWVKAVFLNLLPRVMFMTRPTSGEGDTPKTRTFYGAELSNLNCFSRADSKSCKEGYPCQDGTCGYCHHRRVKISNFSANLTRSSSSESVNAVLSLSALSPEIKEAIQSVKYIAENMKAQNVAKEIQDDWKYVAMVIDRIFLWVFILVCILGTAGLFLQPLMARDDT
Source text: as §1

α3β4 nAChR subtype = molecular target: T5, α3β4 nAChR subtype (Rattus norvegicus, UniProt P04757+P12392); experiment: biochemical
T5 construct: expressed in transfected cells
T5 sequence (P04757 26-499): as above
T5 sequence (P12392 21-495): as the sequence (P12392 21-495) above
Source text: as §1

α4β4 nAChR subtype = molecular target: T6, α4β4 nAChR subtype (Rattus norvegicus, UniProt P09483+P12392); experiment: biochemical
T6 construct: expressed in transfected cells
T6 sequence (P12392 21-495): as above
T6 sequence (P09483 31-630): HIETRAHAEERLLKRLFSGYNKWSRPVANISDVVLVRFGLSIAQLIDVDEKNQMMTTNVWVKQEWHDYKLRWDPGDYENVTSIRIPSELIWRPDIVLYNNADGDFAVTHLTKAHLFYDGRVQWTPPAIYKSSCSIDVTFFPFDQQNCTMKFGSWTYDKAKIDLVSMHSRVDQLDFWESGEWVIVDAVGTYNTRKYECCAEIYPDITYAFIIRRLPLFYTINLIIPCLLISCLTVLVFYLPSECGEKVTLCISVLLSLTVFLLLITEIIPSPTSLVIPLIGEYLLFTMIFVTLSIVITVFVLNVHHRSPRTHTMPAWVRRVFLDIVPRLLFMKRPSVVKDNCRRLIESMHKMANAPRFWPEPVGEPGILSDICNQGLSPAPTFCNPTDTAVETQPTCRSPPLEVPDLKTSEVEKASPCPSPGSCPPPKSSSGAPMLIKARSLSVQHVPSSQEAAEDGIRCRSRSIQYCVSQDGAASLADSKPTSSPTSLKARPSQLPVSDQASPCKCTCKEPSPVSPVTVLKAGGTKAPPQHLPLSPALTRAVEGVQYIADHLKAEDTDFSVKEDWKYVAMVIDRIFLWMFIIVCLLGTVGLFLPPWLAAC
Source text: as §1

[2] = molecular target: T7, receptors in rat forebrain (mainly α4β2) (Rattus norvegicus, UniProt P09483+P12390); experiment: biochemical
T7 construct: from tissue; host or cells: rat forebrain homogenate
T7 sequence (P09483 31-630): as above
T7 sequence (P12390 25-500): as the sequence (P12390 25-500) above
Source text: as §1, §2, §3, §4, §5

[3] = molecular target: T7, receptors in rat forebrain (mainly α4β2); details: Table 6, [3H]-EB 0.099 nM, 0.091 nM, n = 1
[4] = Table 5, rat nAChR subtypes, read-out: Ki α2β2
[5] = Table 6, [3H]-EB 0.099 nM, 0.091 nM, ligand 0.00197-100 μM, n = 1, read-out: Ki α2β2
[6] = Table 5, rat nAChR subtypes, read-out: Ki α2β4
[7] = Table 6, [3H]-EB 0.099 nM, 0.091 nM, ligand 0.00197-100 μM, n = 1, read-out: Ki α2β4
[8] = Table 5, rat nAChR subtypes, read-out: Ki α3β2
[9] = Table 6, [3H]-EB 0.099 nM, 0.091 nM, ligand 0.00197-100 μM, n = 1, read-out: Ki α3β2
[10] = Table 5, rat nAChR subtypes, read-out: Ki α3β4
[11] = Table 6, [3H]-EB 0.099 nM, 0.091 nM, ligand 0.00197-100 μM, n = 1, read-out: Ki α3β4
[12] = Table 5, rat nAChR subtypes, read-out: Ki α4β2
[13] = Table 6, [3H]-EB 0.099 nM, 0.091 nM, ligand 0.00197-100 μM, n = 1, read-out: Ki α4β2
[14] = Table 5, rat nAChR subtypes, read-out: Ki α4β4
[15] = Table 6, [3H]-EB 0.099 nM, 0.091 nM, ligand 0.00197-100 μM, n = 1, read-out: Ki α4β4
[16] = Table 5, *Rat forebrain, mainly α4β2, read-out: Ki α4β2*
[17] = Ki α2β2, Table 5, rat nAChR subtypes
[18] = Ki α2β4, Table 5, rat nAChR subtypes
[19] = Ki α3β2, Table 5, rat nAChR subtypes
[20] = Ki α3β4, Table 5, rat nAChR subtypes
[21] = Ki α4β2, Table 5, rat nAChR subtypes
[22] = Ki α4β4, Table 5, rat nAChR subtypes
[23] = Ki α4β2*, Table 5, *Rat forebrain, mainly α4β2
[24] = Ki α3β4, Table 1, mean of 3 (1, 2: 3 to 6) independent measurements
[25] = Ki α4β2, Table 1, mean of 3 (1, 2: 3 to 6) independent measurements

T1 sequence (P12390 25-500): as above
T1 sequence (P09483 31-630): as the sequence (P09483 31-630) above

Compound	Ki (α2β2 nAChR subtype; [4])	Ki (α2β2 nAChR subtype; [5])	Ki (α2β4 nAChR subtype; [6])	Ki (α2β4 nAChR subtype; [7])	Ki (α3β2 nAChR subtype; [8])	Ki (α3β2 nAChR subtype; [9])	Ki (α3β4 nAChR subtype; [10])	Ki (α3β4 nAChR subtype; [11])	Ki (α4β2 nAChR subtype; [12])	Ki (α4β2 nAChR subtype; [13])	Ki (α4β4 nAChR subtype; [14])	Ki (α4β4 nAChR subtype; [15])	Ki [2, 16]	Ki [3]	Ki (α2β2 nAChR subtype; [17])	Ki (α2β4 nAChR subtype; [18])	Ki (α3β2 nAChR subtype; [19])	Ki (α3β4 nAChR subtype; [20])	Ki (α4β2 nAChR subtype; [21])	Ki (α4β4 nAChR subtype; [22])	other results
FCCCCC#Cc1cncc(OC[C@@H]2CCN2)c1 [Ligand 41]	–	–	–	–	–	–	–	–	–	–	–	–	–	–	–	–	–	–	–	–	affinities for α4β2 nAChR subtype (in words) (α4β2 nAChR subtype): subnanomolar; Affinity ratio (α3β4/Forbrain) [1]: 15,166
OCCCCC#Cc1cncc(OC[C@@H]2CCN2)c1 [Ligand 26]	–	–	–	–	–	–	–	–	–	–	–	–	–	–	–	–	–	–	–	–	selectivity at α4β2 vs ganglionic α3β4 receptors (α4β2 nAChR subtype; text b206): 54,000 fold; more selective for α4β2 over α3β4 than the corresponding parent compounds 7, 8, and 2 (α4β2 nAChR subtype; text b210): 2 orders of magnitude; Affinity ratio (α3β4/Forbrain) [1]: 53,778
C#Cc1cncc(OC[C@@H]2CCCN2C)c1 [Ligand 18, 5-(1-Ethynyl)-3-(1-methyl-2(S)-pyrrolidinylmethoxy)pyridine]	0.75 nM	0.749 nM	434 nM	434 nM	10.7 nM	10.7 nM	3.08 µM	3.08 µM	1.02 nM	1.02 nM	473 nM	473 nM	3.65 nM	3.65 nM	–	–	–	–	–	–	–
CN1CCC[C@H]1COc1cncc(C#CCCCCO)c1 [Ligand 16, 5-(6-Hydroxy-1-hexynyl)-3-(1-methyl-2(S) -pyrrolidinylmethoxy)pyridine]	2.87 nM	2.87 nM	3230 nM	3230 nM	12.6 nM	12.6 nM	40.2 µM	40.2 µM	0.81 nM	0.81 nM	1270 nM	1270 nM	3.56 nM	3.56 nM	–	–	–	–	–	–	–
CN1CCC[C@H]1COc1cncc(C#CC(C)(C)O)c1 [Ligand 15, 5-(3-Hydroxy-3-methyl-1-butynyl)-3-(1-methyl-2(S)pyrrolidinylmethoxy)pyridine]	1.93 nM	1.93 nM	5890 nM	5890 nM	19.7 nM	19.7 nM	32.6 µM	32.6 µM	1.34 nM	1.34 nM	5060 nM	5060 nM	8.39 nM	8.39 nM	–	–	–	–	–	–	–
CN1CCC[C@H]1COc1cncc(C#CCO)c1 [Ligand 14, 5-(3-Hydroxy-1-propargyl)-3-(1-methyl-2(S)-pyrrolidinylmethoxy)pyridine]	2.43 nM	2.43 nM	1880 nM	1880 nM	7.64 nM	7.64 nM	18.2 µM	18.2 µM	0.954 nM	0.954 nM	1690 nM	1690 nM	3.16 nM	3.16 nM	–	–	–	–	–	–	–
CN1CCC[C@H]1COc1cncc(C#CCNC(=O)OC(C)(C)C)c1 [Ligand 13, 5-(3-tert-Butoxycarbonylamino-1-propynyl)-3-(1-methyl-2(S)-pyrrolidinylmethoxy)pyridine]	–	–	–	–	–	–	–	–	–	–	–	–	–	–	–	–	–	–	–	–	Ki (α2β2 nAChR subtype; read-out: Ki α2β2, Table 5, rat nAChR subtypes): 1.19 nM; Ki (α2β4 nAChR subtype; read-out: Ki α2β4, Table 5, rat nAChR subtypes): 8240 nM; Ki (α3β2 nAChR subtype; read-out: Ki α3β2, Table 5, rat nAChR subtypes): 7.27 nM; Ki (α3β4 nAChR subtype; read-out: Ki α3β4, Table 5, rat nAChR subtypes): 59.9 µM; Ki (α4β2 nAChR subtype; read-out: Ki α4β2, Table 5, rat nAChR subtypes): 2.07 nM; Ki (α4β4 nAChR subtype; read-out: Ki α4β4, Table 5, rat nAChR subtypes): 8280 nM; Ki ([2]; read-out: Ki α4β2*, Table 5, *Rat forebrain, mainly α4β2): 3.71 nM
O=C1CC2CC(c3ccc(Cl)nc3)C1N2 (stereo not drawn) [Ligand 5, 2-exo-(2-Chloro-5-pyridyl)-7-azabicyclo[2.2.1]heptan-6-one]	–	–	–	–	–	–	–	–	–	–	–	–	–	–	1010 nM	3240 nM	1500 nM	8.87 µM	2020 nM	3560 nM	Ki [2, 23]: 1350 nM
C#Cc1cncc(OC[C@@H]2CCCN2C)c1 [Ligand 18]	–	–	–	–	–	–	–	–	–	–	–	–	–	–	–	–	–	–	–	–	Ki (α2β2 nAChR subtype; Ki α2β2, Table 1, mean of 3 (1, 2: 3 to 6) independent measurements): 0.75 nM; Ki (α2β4 nAChR subtype; Ki α2β4, Table 1, mean of 3 (1, 2: 3 to 6) independent measurements): 434 nM; Ki (α3β2 nAChR subtype; Ki α3β2, Table 1, mean of 3 (1, 2: 3 to 6) independent measurements): 10.7 nM; Ki (α3β4 nAChR subtype; [24]): 3.08 µM; Ki (α4β2 nAChR subtype; [25]): 1.02 nM; Ki (α4β4 nAChR subtype; Ki α4β4, Table 1, mean of 3 (1, 2: 3 to 6) independent measurements): 473 nM; Ki ([2]; Ki Rat forebrain, Table 1, mean of 3 (1, 2: 3 to 6) independent measurements): 3.65 nM
Clc1ccc(C2CC3CC4(OCCO4)C2N3)cn1 (stereo not shown) [ZW-82]	–	–	–	–	–	–	–	–	–	–	–	–	–	–	30 nM	93.8 nM	147 nM	0.173 µM	57.3 nM	53.1 nM	Ki [2, 23]: 304 nM
Clc1cc2c(cn1)C1(CC2)CC2CCC1N2 (stereo not shown) [Ligand 58a]	–	–	–	–	–	–	–	–	–	–	–	–	–	–	12800 nM	11600 nM	16000 nM	36.7 µM	28000 nM	10200 nM	Ki (α2β2 nAChR subtype; Table 3, mean ± SEM of 3 (nicotine, 1: 3 to 6) independent measurements, read-out: Ki α2β2): 12600 nM; Ki (α2β4 nAChR subtype; Table 3, mean ± SEM of 3 (nicotine, 1: 3 to 6) independent measurements, read-out: Ki α2β4): 10700 nM; Ki (α3β2 nAChR subtype; Table 3, mean ± SEM of 3 (nicotine, 1: 3 to 6) independent measurements, read-out: Ki α3β2): 19700 nM; Ki (α3β4 nAChR subtype; Table 3, mean ± SEM of 3 (nicotine, 1: 3 to 6) independent measurements, read-out: Ki α3β4): 14.9 µM; Ki (α4β2 nAChR subtype; Table 3, mean ± SEM of 3 (nicotine, 1: 3 to 6) independent measurements, read-out: Ki α4β2): 29200 nM; Ki (α4β4 nAChR subtype; Table 3, mean ± SEM of 3 (nicotine, 1: 3 to 6) independent measurements, read-out: Ki α4β4): 10500 nM; Ki [2, 23]: 54400 nM
CN1CCC[C@H]1COc1cncc(CCCCCCO)c1 [Ligand 19]	–	–	–	–	–	–	–	–	–	–	–	–	–	–	–	–	–	–	–	–	Ki (α2β2 nAChR subtype): 3.33 nM; Ki (α2β4 nAChR subtype): 1150 nM; Ki (α3β2 nAChR subtype): 13.4 nM; Ki (α3β4 nAChR subtype; [24]): 20 µM; Ki (α4β2 nAChR subtype; [25]): 0.75 nM; Ki (α4β4 nAChR subtype): 968 nM; Ki [2]: 5.39 nM
O[C@H]1C[C@H]2C[C@H](c3ccc(Cl)nc3)[C@@H]1N2 (relative stereo) [Ligand 9, 2-exo-(2-Chloro-5-pyridyl)-6-endo-hydroxyl-7-azabicyclo[2.2.1]heptane]	–	–	–	–	–	–	–	–	–	–	–	–	–	–	1.53 nM	5.85 nM	1.36 nM	0.0273 µM	0.916 nM	5.57 nM	Ki [2, 23]: 4.11 nM
CN1CCC[C@H]1COc1cncc(C#CCCCCCCCCO)c1 [Ligand 17, 5-(10-Hydroxy-1-decynyl)-3-(1-methyl-2(S) -pyrrolidinylmethoxy)pyridine]	26.8 nM	26.8 nM	7800 nM	7800 nM	52.1 nM	52.1 nM	62.7 µM	62.7 µM	6.5 nM	6.5 nM	3560 nM	3560 nM	21.7 nM	21.7 nM	–	–	–	–	–	–	–
CCCCCc1cncc(C2CC3CCC2N3)c1 (stereo not shown) [ZW-95]	–	–	–	–	–	–	–	–	–	–	–	–	–	–	0.323 nM	24.9 nM	0.165 nM	0.122 µM	0.151 nM	7.91 nM	Ki [2, 23]: 0.314 nM
CN1CCC[C@H]1COc1cncc(CCCCCCO)c1 [Ligand 19, 5-(6-Hydroxy-1-hexanyl)-3-(1-methyl-2(S) -pyrrolidinylmethoxy)pyridine]	3.33 nM	3.33 nM	1150 nM	1150 nM	13.4 nM	13.4 nM	20 µM	20 µM	0.75 nM	0.754 nM	968 nM	968 nM	5.39 nM	5.39 nM	–	–	–	–	–	–	–

From US8030300B2, “Ligands for nicotinic acetylcholine receptors, and methods of making and using them” (priority 2003, dated 2011)
